IC50 data for one compound are collected here from PubChem BioAssay AID1224911.

The IC50 is the point on the concentration scale where inhibition reaches its midpoint.

Structures are written as SMILES.

The assay addresses Serine/threonine-protein kinase PAK 2 (Homo sapiens) (UniProt Q13177). The assay is described as follows: PubChem AID 1224911. The note with it: Caliper in vitro kinase assay, phosphorylated PAK2.

Sequence of Serine/threonine-protein kinase PAK 2 (Homo sapiens) (Q13177 whole entry, looked up): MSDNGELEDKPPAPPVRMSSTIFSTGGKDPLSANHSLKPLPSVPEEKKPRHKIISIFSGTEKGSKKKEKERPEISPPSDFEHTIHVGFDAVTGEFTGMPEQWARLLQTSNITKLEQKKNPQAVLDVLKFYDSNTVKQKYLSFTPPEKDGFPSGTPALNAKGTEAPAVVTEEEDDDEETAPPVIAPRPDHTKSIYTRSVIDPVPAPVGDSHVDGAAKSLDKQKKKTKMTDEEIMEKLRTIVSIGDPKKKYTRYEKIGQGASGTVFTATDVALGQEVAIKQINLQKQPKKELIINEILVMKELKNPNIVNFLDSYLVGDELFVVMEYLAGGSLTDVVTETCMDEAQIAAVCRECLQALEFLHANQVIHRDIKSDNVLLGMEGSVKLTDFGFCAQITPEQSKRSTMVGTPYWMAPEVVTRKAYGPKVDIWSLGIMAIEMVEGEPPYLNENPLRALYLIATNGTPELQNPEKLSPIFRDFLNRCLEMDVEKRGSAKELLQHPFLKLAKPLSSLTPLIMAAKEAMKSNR

In the case of `CC(C)NC(=O)N1CC[C@H](N=C2Nc3cc(F)ccc3N(CC(F)F)c3ccc(Cl)cc32)C1`, the IC50 was 720 nM.
